Experiments:
IOP in the rabbit eye = assay: Intraocular pressure (IOP) pharmacodynamics in normotensive rabbit, tonometer; assay type: in vivo, New Zealand White rabbits; settings: for IOP decrease, treated eye: within 1 hour
[1] = test system: corneal neovascularization; assay: Suture-induced corneal neovascularization model, neovascularization area by image analysis; assay type: in vivo, New Zealand rabbits; settings: for average neovascularization area lower compared to no treatment group: MN-1bolus: intrastromal 1.1 μg, single microneedle; for reduction of neovascularization compared to untreated eye: SC-high: subconjunctival injection 2500 μg bolus on day 4
Experimental: All animal studies adhered to the ARVO statement for the Use of Animals in Ophthalmic and Vision Research and were approved by the Georgia Institute of Technology Institutional Animal Care and Use Committee (IACUC). Male and female New Zealand rabbits (2.2-2.5 kg) were anesthetized with ketamine (17 mg/kg), xylazine (8.5 mg/kg) and acepromazine (0.5 mg/kg) subcutaneously. Following topical administration of 0.5% proparacaine hydrochloride to minimize discomfort, a single 7.0-gauge silk suture (Ethicon TG140, Blue Ash, Ohio) was placed at midstromal depth 1 mm away from the limbus of the rabbit cornea to generate corneal neovascularization associated with minor traumatic injury. This silk suture was left in the rabbit cornea for the duration of the experiment to induce neovascularization. For each animal, a suture was placed in one eye and the companion eye was left untreated.
During the experiment, the rabbit eye was imaged using a digital camera (Cannon Rebel Tli, Melvile, N.Y.) with macroscopic lens (Cannon MP-E 65 mm) at 3× magnification every two days after placement of the suture. The area of neovascularization was quantified using Adobe Photoshop (Adobe, Jan Jose, Calif.).
Prior to all treatment procedures except for topical delivery, rabbits were anesthetized with ketamine (6 mg/kg), xylazine (4 mg/kg) and acepromazine (0.25 mg/kg) subcutaneously. A reduced dose of anesthesic compared to the suture insertion procedure was used to reduce possible stress to the animals. A single drop of topical proparacaine ophthalmic solution was given as anesthesia. The duration of each study was 18 days and, after the suture insertion at the beginning of the experiment, 4 days were allowed for neovascularization to develop. All the treatments were done on day 4 except as indicated below.
The high-dose group (SC-high) received 2500 μg of bevacuzumab (in 100 μL, i.e., Avastin). The low-dose group (SC-low) received 4.4 μg of bevacuzumab (Avastin was diluted with HBSS to 100 μL).

rabbit cornea = assay: Safety of intrastromal delivery: corneal surface inspection and histology; assay type: in vivo
Excerpt: To identify possible microanatomical changes after intrastromal delivery using microneedles, we conducted a histological safety study using four study groups: (i) The untreated group received no suture and no other treatments. (ii) The suture-only group received a suture at day 0, but no other treatments. (iii). The suture with non-coated microneedles group received a suture on day 0 and four non-coated microneedles inserted at the site of the suture on day 4. […] Animals were sacrificed on days 1, 6, 10 and/or 18 for histological analysis. Suture placement and microneedle application were carried out as described above. High magnification images were taken every day in all study groups to assess possible gross corneal damage. Corneal tissues were fixed in 10% formalin and embedded in paraffin. Hematoxylin-eosin (HE) or periodic acid-Schiff (PAS) staining was performed.
The rabbit corneas with and without microneedle treatment and with and without suture placement were evaluated to assess the safety of microneedle insertion by both magnified inspection of the corneal surface in vivo and histological examination of tissue sections obtained at various times after microneedle treatment Immediately after insertion and removal of the microneedle, a small puncture in the corneal epithelium was evident with a size on the order of 200 μm (data not shown). […]

[2] = Intrastromal delivery of bevacizumab from coated microneedles into rabbit cornea in vivo (ELISA)

FC(F)OC(Cl)C(F)(F)F (stereo not shown) [isoflurane]
time for effects on IOP to reverse (IOP in the rabbit eye; after inhalation stopped): 15 to 30 min | IOP elevation (IOP in the rabbit eye; during 15 min inhalation of escalating dose): ~5 mmHg

CC(C)OC(=O)CCC/C=C\C[C@@H]1[C@@H](CC[C@@H](O)CCc2ccccc2)[C@H](O)C[C@@H]1O [latanoprost]
change in IOP (IOP in the rabbit eye; standard human dose of 2.5 μg, rabbit model): no change in IOP was observed

CS(=O)(=O)NC(=O)CCC/C=C\C[C@H]1C(=O)C[C@@H](O)[C@@H]1/C=C/[C@@H](O)COc1ccccc1 [sulprostone, Sulprostone]
duration of ocular hypotension, treated eye (IOP in the rabbit eye; single topical eye drop 2.5 μg): about 8 hours | maximum IOP decrease, treated eye (IOP in the rabbit eye; single topical eye drop 2.5 μg, at approximately 2 hours): ~3.4 mmHg | ratio of topical to supraciliary dose for similar pharmacodynamic response (AUCPD comparison) (IOP in the rabbit eye; sulprostone, topical 2.5 μg vs supraciliary, Equation (2)): 101 | persistence of ocular hypotension, treated eye (IOP in the rabbit eye; supraciliary 0.005 μg in 10 μL): approximately 6 hours | peak IOP drop, treated eye (IOP in the rabbit eye; supraciliary 0.005 μg in 10 μL, at 1 hour): ~2.8 mmHg | persistence of IOP decrease (IOP in the rabbit eye; supraciliary 0.025 μg in 10 μL): at least 9 hours | IOP decrease, treated eye (IOP in the rabbit eye; supraciliary 0.025 μg in 10 μL): ~3.1 mmHg

Bevacizumab
average neovascularization area lower compared to no treatment group ([1]; day 4, day 10): 34% | average neovascularization area lower compared to no treatment group ([1]; day 4, day 18): 10% | reduction of neovascularization area ([1]; MN-1bolusx3: intrastromal 1.1 μg on days 4, 6 and 8 (total 3.3 μg), day 10): 50% | reduction of neovascularization area compared to untreated eyes ([1]; MN-4bolus: intrastromal 4.4 μg, four coated microneedles, day 4, day 10): 65% | reduction of neovascularization compared to untreated eyes ([1]; MN-hollow: intrastromal 50 μg (2 μL of 25 μg/μL) by hollow microneedle, day 4, day 10): 74% | reduction of neovascularization compared to untreated eye ([1]; day 10): 62% | reduction of neovascularization compared to untreated eye ([1]; day 18): 29% | effect on neovascularization compared to untreated eyes ([1]; SC-low: subconjunctival injection 4.4 μg bolus on day 4): no significant effect | reduction of neovascularization compared to untreated eyes ([1]; TOP: topical eye drops 3 per day from day 4, total 52,500 μg, day 18): 6% | corneal histology, sutured eyes with versus without microneedle treatment (rabbit cornea; 1.1 μg bevacizumab by microneedle four days after suture): no notable differences | corneal surface after treatment with bevacizumab-coated microneedles (rabbit cornea; magnified inspection in vivo, daily over 18 days): only a microscopic puncture in the corneal epithelium that disappeared within one day and was not associated with any complications | coated bevacizumab delivered into the cornea ([2]; coated microneedles, 10 dip coats, inserted 60 sec, rabbit cornea in vivo): 52% | amount of bevacizumab delivered per microneedle ([2]; microneedles coated with 20 dips): 1.14 ± 0.11 µg

brimonidine tartrate
supraciliary dose for similar pharmacodynamic response, fold less than topical delivery (AUCPD) (IOP in the rabbit eye; brimonidine, topical 75 μg vs supraciliary): 115 fold | time for IOP to return to normal (IOP in the rabbit eye; single topical drop 75 μg): ≤ 6 h | peak IOP reduction, treated eye (IOP in the rabbit eye; single topical drop 75 μg, at 2 hours): approximately 4 mmHg | IOP changes in treated and contralateral eyes (IOP in the rabbit eye; supraciliary 0.015 μg in 10 μL): no significant IOP changes | persistence of IOP drop (IOP in the rabbit eye; supraciliary 0.75 μg in 10 μL): about 5 hours | peak IOP drop, treated eye (IOP in the rabbit eye; supraciliary 0.75 μg in 10 μL, at 2 hours): ~3 mmHg | persistence of IOP decrease (IOP in the rabbit eye; supraciliary 1.5 μg in 10 μL): about 9 hours | IOP decrease, treated eye (IOP in the rabbit eye; supraciliary 1.5 μg in 10 μL): ~3.3 mmHg

From patent US20160310417A1, “Formulations and Methods For Targeted Ocular Delivery of Therapeutic Agents” (Emory University, priority 2013, published 2016)
